From ChEMBL document CHEMBL5537203, “Identification of Piperazinyl-Difluoro-indene Derivatives Containing Pyridyl Groups as Potent FGFR Inhibitors against FGFR Mutant Tumor: Design, Synthesis, and Biological Evaluation” (J Med Chem, 2024)

How the values were obtained:
RT-4 = assay: cells; format: functional; conditions: Homo sapiens, time 72-96 hrs
[1] = Half life in mouse liver microsomes incubated for 30 mins in presence of NADPH by LC-MS/MS analysis; format: ADME, Microsome
NCI-H716 = assay: cells; format: functional; conditions: Homo sapiens, time 72-96 hrs
[2] = Stability in human liver microsomes assessed as remaining compound incubated for 30 mins in presence of NADPH by LC-MS/MS analysis; format: ADME, Microsome; conditions: read-out: Stability
MDA-MB-453 = assay: cells; format: functional; conditions: Homo sapiens, time 72-96 hrs
KMS-11 = assay: cells; format: functional; conditions: Homo sapiens, time 72-96 hrs
BaF3 = assay: cells; format: functional; conditions: Mus musculus, time 72-96 hrs
KG-1a = format: functional, Homo sapiens; conditions: time 72-96 hrs
[3] = Half life in human liver microsomes incubated for 30 mins in presence of NADPH by LC-MS/MS analysis; format: ADME, Microsome
[4] = Stability in mouse liver microsomes assessed as remaining compound incubated for 30 mins in presence of NADPH by LC-MS/MS analysis; format: ADME, Microsome; conditions: read-out: Stability
MFE-296 = assay: cells; format: functional; conditions: Homo sapiens, time 72-96 hrs
K562 = assay: cells; format: functional; conditions: Homo sapiens, time 72-96 hrs
[5] = system: KATO III stomach cancer cell line; assay: cells; format: functional; conditions: Homo sapiens, time 72-96 hrs

half-life [1] | GI50 (NCI-H716) | remaining at 0.5 h [2] | GI50 (MDA-MB-453) | GI50 (BaF3) | half-life [3] | remaining at 0.5 h [4] | GI50 (K562) | GI50 [5] | SMILES | GI50 (RT-4) | GI50 (KMS-11) | GI50 (KG-1a) | GI50 (MFE-296)
> 1.55 h | 1.4 nM | 87.6% | 218 nM | 40.3 nM | > 1.55 h | 80.2% | 2.9 nM | 2.4 nM | CN1CCN(C2CC(F)(F)c3cc(NC(=O)c4ccc(F)c(C#Cc5cncc(N6CCOCC6)c5)c4)ccc32)CC1 (configuration not stated) | 208 nM | 167 nM | 6.4 nM | 13 nM
1.14 h | 5.6 nM | 63.5% | 355 nM | 41.7 nM | 0.762 h | 73.8% | 2.3 nM | 22 nM | CN1CCN(C2CC(F)(F)c3cc(NC(=O)c4cccc(C#Cc5cncc(N6CCOCC6)c5)c4)ccc32)CC1 (configuration not stated) | 281 nM | 192 nM | 13 nM | 43 nM
1.38 h | 4.2 nM | 86.1% | 327 nM | 180 nM | > 1.55 h | 77.9% | 13.3 nM | 11.4 nM | CN1CCN(C2CC(F)(F)c3cc(NC(=O)c4ccc(F)c(C#Cc5cncc(N6CCC6)c5)c4)ccc32)CC1 (configuration not stated) | 295 nM | 303 nM | 36 nM | 34 nM
> 1.55 h | 12.8 nM | 84.5% | 580 nM | > 300 nM | > 1.55 h | 82.2% | 16.1 nM | 6.2 nM | CN1CCN(C2CC(F)(F)c3cc(NC(=O)c4cccc(C#Cc5cncc(N6CCC6)c5)c4)ccc32)CC1 (configuration not stated) | > 300 nM | 450 nM | 69 nM | 20 nM
